ChEMBL document CHEMBL2380247, “Synthesis and biological evaluation of novel aliphatic amido-quaternary ammonium salts for anticancer chemotherapy: part II” (2013)
Active and inactive are the calls of the source. No cut-off for these calls is given here.

Key:
NUGC-3 [1] = experiment: Antiproliferative activity against human NUGC3 cells at 3 uM by SRB assay; format: functional
ACHN [2] = experiment: Antiproliferative activity against human ACHN cells by SRB assay; format: functional
MDA-MB-231 [3] = experiment: Antiproliferative activity against human MDA-MB-231 cells at 3 uM by SRB assay; format: functional
PC-3 [4] = experiment: Antiproliferative activity against human PC3 cells by SRB assay; format: functional
NCI-H23 [5] = experiment: Antiproliferative activity against human NCI-H23 cells at 3 uM by SRB assay; format: functional
PC-3 [6] = experiment: Antiproliferative activity against human PC3 cells at 1 uM by SRB assay; format: functional
ACHN [7] = experiment: Antiproliferative activity against human ACHN cells at 3 uM by SRB assay; format: functional
[8] = biological target: Rho-related GTP-binding protein RhoB (Homo sapiens) (UniProt P62745); experiment: Transactivation of RhoB in human HeLa cells by luciferase reporter assay; format: cell-based
NUGC-3 [9] = experiment: Antiproliferative activity against human NUGC3 cells at 0.3 uM by SRB assay; format: functional
MDA-MB-231 [10] = experiment: Antiproliferative activity against human MDA-MB-231 cells at 0.3 uM by SRB assay; format: functional
NUGC-3 [11] = experiment: Antiproliferative activity against human NUGC3 cells by SRB assay; format: functional
HCT-15 [12] = experiment: Antiproliferative activity against human HCT15 cells at 1 uM by SRB assay; format: functional
NCI-H23 [13] = experiment: Antiproliferative activity against human NCI-H23 cells at 10 uM by SRB assay; format: functional
MDA-MB-231 [14] = experiment: Antiproliferative activity against human MDA-MB-231 cells at 0.1 uM by SRB assay; format: functional
MDA-MB-231 [15] = experiment: Antiproliferative activity against human MDA-MB-231 cells by SRB assay; format: functional
NUGC-3 [16] = experiment: Antiproliferative activity against human NUGC3 cells at 10 uM by SRB assay; format: functional
PC-3 [17] = experiment: Antiproliferative activity against human PC3 cells at 0.3 uM by SRB assay; format: functional
NCI-H23 [18] = experiment: Antiproliferative activity against human NCI-H23 cells at 1 uM by SRB assay; format: functional
PC-3 [19] = experiment: Antiproliferative activity against human PC3 cells at 10 uM by SRB assay; format: functional
NCI-H23 [20] = experiment: Antiproliferative activity against human NCI-H23 cells at 0.3 uM by SRB assay; format: functional
PC-3 [21] = experiment: Antiproliferative activity against human PC3 cells at 3 uM by SRB assay; format: functional
NUGC-3 [22] = experiment: Antiproliferative activity against human NUGC3 cells at 0.1 uM by SRB assay; format: functional
HCT-15 [23] = experiment: Antiproliferative activity against human HCT15 cells by SRB assay; format: functional
MDA-MB-231 [24] = experiment: Antiproliferative activity against human MDA-MB-231 cells at 1 uM by SRB assay; format: functional
NCI-H23 [25] = experiment: Antiproliferative activity against human NCI-H23 cells at 0.1 uM by SRB assay; format: functional
HCT-15 [26] = experiment: Antiproliferative activity against human HCT15 cells at 0.3 uM by SRB assay; format: functional
MDA-MB-231 [27] = experiment: Antiproliferative activity against human MDA-MB-231 cells at 10 uM by SRB assay; format: functional
ACHN [28] = experiment: Antiproliferative activity against human ACHN cells at 0.1 uM by SRB assay; format: functional
NCI-H23 [29] = experiment: Antiproliferative activity against human NCI-H23 cells by SRB assay; format: functional
PC-3 [30] = experiment: Antiproliferative activity against human PC3 cells at 0.1 uM by SRB assay; format: functional
ACHN [31] = experiment: Antiproliferative activity against human ACHN cells at 10 uM by SRB assay; format: functional
HCT-15 [32] = experiment: Antiproliferative activity against human HCT15 cells at 10 uM by SRB assay; format: functional
ACHN [33] = experiment: Antiproliferative activity against human ACHN cells at 0.3 uM by SRB assay; format: functional
HCT-15 [34] = experiment: Antiproliferative activity against human HCT15 cells at 3 uM by SRB assay; format: functional
HCT-15 [35] = experiment: Antiproliferative activity against human HCT15 cells at 0.1 uM by SRB assay; format: functional
NUGC-3 [36] = experiment: Antiproliferative activity against human NUGC3 cells at 1 uM by SRB assay; format: functional
ACHN [37] = experiment: Antiproliferative activity against human ACHN cells at 1 uM by SRB assay; format: functional

Sequence of Rho-related GTP-binding protein RhoB (Homo sapiens) (P62745 whole entry): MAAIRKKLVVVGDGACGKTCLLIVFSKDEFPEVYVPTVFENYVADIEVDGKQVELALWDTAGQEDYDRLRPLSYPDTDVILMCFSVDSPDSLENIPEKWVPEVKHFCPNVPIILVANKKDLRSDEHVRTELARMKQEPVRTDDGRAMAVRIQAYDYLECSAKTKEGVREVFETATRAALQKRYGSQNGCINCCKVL

| Structure (SMILES) | growth, % of control at 3 µM (NUGC-3 [1]) | GI50 (ACHN [2]) | growth, % of control at 3 µM (MDA-MB-231 [3]) | GI50 (PC-3 [4]) | growth, % of control at 3 µM (NCI-H23 [5]) | growth, % of control at 1 µM (PC-3 [6]) | growth, % of control at 3 µM (ACHN [7]) | Activity [8] | growth, % of control at 0.3 µM (NUGC-3 [9]) | growth, % of control at 0.3 µM (MDA-MB-231 [10]) | GI50 (NUGC-3 [11]) | growth, % of control at 1 µM (HCT-15 [12]) | growth, % of control at 10 µM (NCI-H23 [13]) | growth, % of control at 0.1 µM (MDA-MB-231 [14]) | GI50 (MDA-MB-231 [15]) | growth, % of control at 10 µM (NUGC-3 [16]) | growth, % of control at 0.3 µM (PC-3 [17]) | growth, % of control at 1 µM (NCI-H23 [18]) | growth, % of control at 10 µM (PC-3 [19]) | growth, % of control at 0.3 µM (NCI-H23 [20]) | other results |
| --- | --- | --- | --- | --- | --- | --- | --- | --- | --- | --- | --- | --- | --- | --- | --- | --- | --- | --- | --- | --- | --- |
| CCCCCCCCCCCCCC(=O)NCCC[N+](C)(C)C | 28.7% | 1560 nM | 58.1% | 390 nM | 39.8% | 44.6% | 58.1% | Active | 73.2% | 81.2% | 430 nM | 71.6% | -15.6% | 83.4% | 1480 nM | 14.8% | 87.3% | 80.9% | -22.8% | 96.4% | growth, % of control at 3 µM (PC-3 [21]): -4.97%; growth, % of control at 0.1 µM (NUGC-3 [22]): 84.9%; GI50 (HCT-15 [23]): 790 nM; growth, % of control at 1 µM (MDA-MB-231 [24]): 80.6%; growth, % of control at 0.1 µM (NCI-H23 [25]): 99.4%; growth, % of control at 0.3 µM (HCT-15 [26]): 82.5%; growth, % of control at 10 µM (MDA-MB-231 [27]): 19.1%; growth, % of control at 0.1 µM (ACHN [28]): 83.3%; GI50 (NCI-H23 [29]): 1020 nM; growth, % of control at 0.1 µM (PC-3 [30]): 85.2%; growth, % of control at 10 µM (ACHN [31]): 25.4%; growth, % of control at 10 µM (HCT-15 [32]): 14.7%; growth, % of control at 0.3 µM (ACHN [33]): 77.2%; growth, % of control at 3 µM (HCT-15 [34]): 33%; growth, % of control at 0.1 µM (HCT-15 [35]): 83.5%; growth, % of control at 1 µM (NUGC-3 [36]): 46.7%; growth, % of control at 1 µM (ACHN [37]): 77.1% |
| CCCCCCCCCCCCCC(=O)NCC(C)(C)C[N+](C)(C)C | 16.2% | 3120 nM | 44% | 510 nM | 48.3% | 64.1% | 83.8% | Active | 104% | 103% | 840 nM | 97.9% | -26.6% | 98.5% | 1310 nM | -33.6% | 94.5% | 104% | -44.4% | 109% | growth, % of control at 3 µM (PC-3 [21]): -13%; growth, % of control at 0.1 µM (NUGC-3 [22]): 103%; GI50 (HCT-15 [23]): 3700 nM; growth, % of control at 1 µM (MDA-MB-231 [24]): 90.2%; growth, % of control at 0.1 µM (NCI-H23 [25]): 147%; growth, % of control at 0.3 µM (HCT-15 [26]): 101%; growth, % of control at 10 µM (MDA-MB-231 [27]): -11%; growth, % of control at 0.1 µM (ACHN [28]): 94.5%; GI50 (NCI-H23 [29]): 1440 nM; growth, % of control at 0.1 µM (PC-3 [30]): 97.9%; growth, % of control at 10 µM (ACHN [31]): 28.7%; growth, % of control at 10 µM (HCT-15 [32]): 33.1%; growth, % of control at 0.3 µM (ACHN [33]): 96.2%; growth, % of control at 3 µM (HCT-15 [34]): 92.5%; growth, % of control at 0.1 µM (HCT-15 [35]): 102%; growth, % of control at 1 µM (NUGC-3 [36]): 84.7%; growth, % of control at 1 µM (ACHN [37]): 95.1% |
| CCCCCCCCCCCCCCCC(=O)N(C)CC[N+](C)(C)C | -0.9% | 450 nM | 41.4% | 370 nM | 58% | 37.3% | 31.9% | Active | 57.7% | 100% | 170 nM | 79.6% | 0% | 106% | 1140 nM | -19.4% | 87.9% | 83.7% | -15.8% | 102% | growth, % of control at 3 µM (PC-3 [21]): 3.5%; growth, % of control at 0.1 µM (NUGC-3 [22]): 77.8%; GI50 (HCT-15 [23]): 1310 nM; growth, % of control at 1 µM (MDA-MB-231 [24]): 81.6%; growth, % of control at 0.1 µM (NCI-H23 [25]): 101%; growth, % of control at 0.3 µM (HCT-15 [26]): 102%; growth, % of control at 10 µM (MDA-MB-231 [27]): -1.2%; growth, % of control at 0.1 µM (ACHN [28]): 87.9%; GI50 (NCI-H23 [29]): 1540 nM; growth, % of control at 0.1 µM (PC-3 [30]): 96%; growth, % of control at 10 µM (ACHN [31]): -19.1%; growth, % of control at 10 µM (HCT-15 [32]): 15.8%; growth, % of control at 0.3 µM (ACHN [33]): 85.9%; growth, % of control at 3 µM (HCT-15 [34]): 45.2%; growth, % of control at 0.1 µM (HCT-15 [35]): 99.9%; growth, % of control at 1 µM (NUGC-3 [36]): 26.8%; growth, % of control at 1 µM (ACHN [37]): 42% |
| CCCCCCCCCCCCCCCC(=O)NCCC[N+](C)(C)C | 34.9% | 3360 nM | 61.6% | 600 nM | 67.8% | 62.6% | 66% | Active | 109% | 98.3% | 1070 nM | 97.4% | 18.3% | 101% | 2180 nM | 20.1% | 85.2% | 93% | -1.77% | 104% | growth, % of control at 3 µM (PC-3 [21]): 19.1%; growth, % of control at 0.1 µM (NUGC-3 [22]): 112%; GI50 (HCT-15 [23]): 2560 nM; growth, % of control at 1 µM (MDA-MB-231 [24]): 96.6%; growth, % of control at 0.1 µM (NCI-H23 [25]): 106%; growth, % of control at 0.3 µM (HCT-15 [26]): 104%; growth, % of control at 10 µM (MDA-MB-231 [27]): 25.1%; growth, % of control at 0.1 µM (ACHN [28]): 97%; GI50 (NCI-H23 [29]): 2150 nM; growth, % of control at 0.1 µM (PC-3 [30]): 90.6%; growth, % of control at 10 µM (ACHN [31]): 42.5%; growth, % of control at 10 µM (HCT-15 [32]): 26.1%; growth, % of control at 0.3 µM (ACHN [33]): 94.4%; growth, % of control at 3 µM (HCT-15 [34]): 71.1%; growth, % of control at 0.1 µM (HCT-15 [35]): 110%; growth, % of control at 1 µM (NUGC-3 [36]): 72.8%; growth, % of control at 1 µM (ACHN [37]): 91.8% |
